Test results reported in patent publication US10947188B2, “Small molecule ferroptosis inducers” (THE TRUSTEES OF COLUMBIA UNIVERSITY IN THE CITY OF NEW YORK, priority 2016, dated 2021).
Read-outs that look alike come from different tables or passages of the source.

What was measured:
HT-1080 = experiment: Modulatory profiling: Alamar Blue viability, lethal compound cotreated with death modulator (EC50, AUC); format: cell-based; design: AUC, modulator HT.3MA / AUC, modulator HT.ALLN / AUC HT.ATA / AUC HT.ActD / AUC HT.BHA / AUC HT.BHT / AUC HT.BocD / AUC HT.CHX / AUC HT.Co2+ / AUC HT.DPQ / AUC HT.EGTA / AUC HT.Lmim / AUC HT.NAD+ / AUC HT.Nec-1 / AUC HT.SP600125 / AUC HT.TLCK / AUC HT.U0126: unit not given beside the values; conditions: for AUC HT.ATA: HT-1080, modulator ATA; for AUC HT.ActD: HT-1080, modulator ActD; for AUC HT.BHA: HT-1080, modulator BHA; for AUC HT.BHT: HT-1080, modulator BHT; for AUC HT.BocD: HT-1080, modulator BocD; for AUC HT.CHX: HT-1080, modulator CHX; for AUC HT.Co2+: HT-1080, modulator Co2+; for AUC HT.CspA: HT-1080, modulator CspA; for AUC HT.DPQ: HT-1080, modulator DPQ; for AUC HT.Gd3+: HT-1080, modulator Gd3+; for AUC HT.LNAME: HT-1080, modulator LNAME; for AUC HT.Lmim: HT-1080, modulator Lmim; for AUC HT.NAD+: HT-1080, modulator NAD+; for AUC HT.NMMA: HT-1080, modulator NMMA; for HT.atoc (AUC) / HT.bCarotene (AUC) / HT.deferox (AUC) / HT.digoxin (AUC) / HT.trolox (AUC) / HT.zVAD (AUC): HT-1080; for HT.atoc (AUC): modulator atoc; for HT.bCarotene (AUC): modulator bCarotene; for HT.deferox (AUC): modulator deferox; for HT.digoxin (AUC): modulator digoxin; for HT.trolox (AUC): modulator trolox; for HT.zVAD (AUC): modulator zVAD; as to AUC HT.BHA: reference of the scale not given here; as to AUC HT.EGTA: reference of the scale not given here
BJeLR = experiment: as above; format: cell-based, human; design: AUC, modulator BJ.Gd3+ / AUC, modulator BJ.LNAME / AUC, modulator BJ.Lmin / AUC, modulator BJ.3MA / AUC, modulator BJ.ALLN / AUC, modulator BJ.Boc D / AUC, modulator BJ.CHX / AUC, modulator BJ.Co2+ / AUC, modulator BJ.Nec-1 / AUC, modulator BJ.Pepstatin / AUC, modulator BJ.TLCK / AUC, modulator BJ.atoc / AUC, modulator BJ.trolox / AUC, modulator BJ.zVAD: unit not given beside the values; conditions: BJeLR cells, modulatory profile value (AUC); for AUC, modulator BJ.3MA: lethal compound cotreated with modulator 3MA; for AUC, modulator BJ.ALLN: lethal compound cotreated with modulator ALLN; for AUC, modulator BJ.Boc D: lethal compound cotreated with modulator Boc D; for AUC, modulator BJ.CHX: lethal compound cotreated with modulator CHX; for AUC, modulator BJ.Co2+: lethal compound cotreated with modulator Co2+; for AUC, modulator BJ.DPQ: lethal compound cotreated with modulator DPQ; for AUC, modulator BJ.Gd3+: lethal compound cotreated with modulator Gd3+; for AUC, modulator BJ.LNAME: lethal compound cotreated with modulator LNAME; for AUC, modulator BJ.Lmin/NAD+: lethal compound cotreated with modulator Lmin/NAD+; for AUC, modulator BJ.Lmin: lethal compound cotreated with modulator Lmin; for AUC, modulator BJ.NAD+: lethal compound cotreated with modulator NAD+; for AUC, modulator BJ.NMMA: lethal compound cotreated with modulator NMMA; for AUC, modulator BJ.Nec-1: lethal compound cotreated with modulator Nec-1; for AUC, modulator BJ.Pepstatin: lethal compound cotreated with modulator Pepstatin; for AUC, modulator BJ.TLCK: lethal compound cotreated with modulator TLCK; as to AUC, modulator BJ.3MA: reference of the scale not given here; as to AUC, modulator BJ.ALLN: reference of the scale not given here; as to AUC, modulator BJ.Boc D: reference of the scale not given here; as to AUC, modulator BJ.CHX: reference of the scale not given here; as to AUC, modulator BJ.Co2+: reference of the scale not given here; as to AUC, modulator BJ.DPQ: reference of the scale not given here; as to AUC, modulator BJ.Gd3+: reference of the scale not given here; as to AUC, modulator BJ.LNAME: reference of the scale not given here; as to AUC, modulator BJ.NAD+: reference of the scale not given here; as to AUC, modulator BJ.NMMA: reference of the scale not given here; as to AUC, modulator BJ.Nec-1: reference of the scale not given here; as to AUC, modulator BJ.Pepstatin: reference of the scale not given here; as to AUC, modulator BJ.TLCK: reference of the scale not given here

SMILES: O=c1c(Cl)c(Cl)cnn1-c1ccc(Cl)cc1 [CIL63]
- AUC HT.ATA (HT-1080): 0.07925
- AUC HT.ActD (HT-1080): −0.003254
- AUC HT.BHA (HT-1080): 0.01784
- AUC HT.BHT (HT-1080): −0.1088
- AUC HT.BocD (HT-1080): 0.01855
- AUC HT.CHX (HT-1080): 0.07744
- AUC HT.Co2+ (HT-1080): 0.02639
- AUC HT.CspA (HT-1080): 0.003063
- AUC HT.DPQ (HT-1080): −0.02172
- AUC HT.EGTA (HT-1080; HT-1080, modulator EGTA): 0.06222
- AUC HT.Gd3+ (HT-1080): −0.03164
- AUC HT.LNAME (HT-1080): 0.04201
- AUC HT.Lmim (HT-1080): 0.03962
- AUC HT.NAD+ (HT-1080): 0.03316
- AUC HT.NMMA (HT-1080): −0.002298
- HT.atoc (AUC) (HT-1080): 0.07269
- HT.bCarotene (AUC) (HT-1080): 0.0644
- HT.deferox (AUC) (HT-1080): 0.08989
- HT.digoxin (AUC) (HT-1080): 0.02371
- HT.trolox (AUC) (HT-1080): 0.03222
- HT.zVAD (AUC) (HT-1080): 0.01846
- AUC, modulator BJ.3MA (BJeLR): 0.04075
- AUC, modulator BJ.ALLN (BJeLR): 0.0544
- AUC, modulator BJ.Boc D (BJeLR): −0.01053
- AUC, modulator BJ.CHX (BJeLR): 0.09508
- AUC, modulator BJ.Co2+ (BJeLR): 0.02177
- AUC, modulator BJ.DPQ (BJeLR): 0.0003046
- AUC, modulator BJ.Gd3+ (BJeLR): 0.01459
- AUC, modulator BJ.LNAME (BJeLR): −0.006812
- AUC, modulator BJ.Lmin/NAD+ (BJeLR): 0.07776
- AUC, modulator BJ.Lmin (BJeLR): 0.01215
- AUC, modulator BJ.NAD+ (BJeLR): 0.02352
- AUC, modulator BJ.NMMA (BJeLR): 0.002719
- AUC, modulator BJ.Nec-1 (BJeLR): 0.02815
- AUC, modulator BJ.Pepstatin (BJeLR): 0.02882
- AUC, modulator BJ.TLCK (BJeLR): −0.0437

SMILES: COc1cccc2c1C(=O)c1c(O)c3c(c(O)c1C2=O)C[C@@](O)(C(C)=O)C[C@@H]3O[C@H]1C[C@H](N)[C@H](O)[C@H](C)O1 [Daunorubicin]
- AUC HT.EGTA (HT-1080): 0.03262
- AUC HT.ATA (HT-1080): −0.00186
- AUC HT.ActD (HT-1080): 0.01442
- AUC HT.BHA (HT-1080): 0.0107
- AUC HT.BHT (HT-1080): −0.05609
- AUC HT.BocD (HT-1080): 0.0522
- AUC HT.CHX (HT-1080): 0.05854
- AUC HT.Co2+ (HT-1080): 0.1614
- AUC HT.CspA (HT-1080): −0.0792
- AUC HT.DPQ (HT-1080): 0.008882
- AUC HT.Gd3+ (HT-1080): 0.01529
- AUC HT.LNAME (HT-1080): −0.009852
- AUC HT.Lmim (HT-1080): 0.06112
- AUC HT.NAD+ (HT-1080): 0.1305
- AUC HT.NMMA (HT-1080): 0.0183
- AUC HT.Nec-1 (HT-1080; HT-1080, modulator Nec-1): 0.02174
- AUC HT.Pepstatin (HT-1080; HT-1080, modulator Pepstatin): 0.005649
- AUC HT.SP600125 (HT-1080; HT-1080, modulator SP600125): −0.0113
- AUC HT.TLCK (HT-1080; HT-1080, modulator TLCK): 0.06429
- AUC HT.U0126 (HT-1080; HT-1080, modulator U0126): −0.0159
- HT.atoc (AUC) (HT-1080): 0.009895
- HT.bCarotene (AUC) (HT-1080): 0.008265
- HT.deferox (AUC) (HT-1080): 0.1515
- HT.digoxin (AUC) (HT-1080): 0.1398
- HT.trolox (AUC) (HT-1080): −0.002722
- HT.zVAD (AUC) (HT-1080): 0.04455
- AUC, modulator HT.3MA (HT-1080; HT-1080 cells, lethal compound cotreated with modulator 3MA, modulatory profile value (AUC)): 0.02823
- AUC, modulator HT.ALLN (HT-1080; HT-1080 cells, lethal compound cotreated with modulator ALLN, modulatory profile value (AUC)): 0.008692
- AUC, modulator BJ.3MA (BJeLR): 0.03793
- AUC, modulator BJ.ALLN (BJeLR): 0.02846
- AUC, modulator BJ.Boc D (BJeLR): 0.03322
- AUC, modulator BJ.CHX (BJeLR): 0.1497
- AUC, modulator BJ.Co2+ (BJeLR): 0.2122
- AUC, modulator BJ.DPQ (BJeLR): −0.03527
- AUC, modulator BJ.Gd3+ (BJeLR): −0.005247
- AUC, modulator BJ.LNAME (BJeLR): 0.005526
- AUC, modulator BJ.Lmin/NAD+ (BJeLR): 0.1434
- AUC, modulator BJ.Lmin (BJeLR): 0.05475
- AUC, modulator BJ.NAD+ (BJeLR): 0.1226
- AUC, modulator BJ.NMMA (BJeLR): −0.01867
- AUC, modulator BJ.Nec-1 (BJeLR): −0.02055
- AUC, modulator BJ.Pepstatin (BJeLR): 0.02539
- AUC, modulator BJ.TLCK (BJeLR): 0.02856
- AUC, modulator BJ.atoc (BJeLR; lethal compound cotreated with modulator atoc): 0.004145
- AUC, modulator BJ.trolox (BJeLR; lethal compound cotreated with modulator trolox): −0.02026
- AUC, modulator BJ.zVAD (BJeLR; lethal compound cotreated with modulator zVAD): 0.05594

SMILES: C=CCC1(Cl)C(=O)C(Cl)=C(n2ccnc2)C1(OC)OC (stereo not shown) [CIL76]
- AUC HT.ATA (HT-1080): 0.04513
- AUC HT.ActD (HT-1080): 0.04286
- AUC HT.BHA (HT-1080): 0.000578
- AUC HT.BHT (HT-1080): −0.08655
- AUC HT.BocD (HT-1080): −0.02767
- AUC HT.CHX (HT-1080): 0.1505
- AUC HT.Co2+ (HT-1080): 0.1531
- AUC HT.CspA (HT-1080): −0.005998
- AUC HT.DPQ (HT-1080): 0.01554
- AUC HT.EGTA (HT-1080; HT-1080, modulator EGTA): −0.02151
- AUC HT.Gd3+ (HT-1080): −0.0293
- AUC HT.LNAME (HT-1080): 0.0222
- AUC HT.Lmim (HT-1080): 0.007964
- AUC HT.NAD+ (HT-1080): 0.00781
- AUC HT.NMMA (HT-1080): −0.007942
- HT.atoc (AUC) (HT-1080): 0.003265
- HT.bCarotene (AUC) (HT-1080): −0.00713
- HT.deferox (AUC) (HT-1080): 0.1376
- HT.digoxin (AUC) (HT-1080): 0.01032
- HT.trolox (AUC) (HT-1080): −0.02707
- HT.zVAD (AUC) (HT-1080): 0.032
- AUC, modulator BJ.3MA (BJeLR): −0.03638
- AUC, modulator BJ.ALLN (BJeLR): −0.0536
- AUC, modulator BJ.Boc D (BJeLR): 0.03237
- AUC, modulator BJ.CHX (BJeLR): 0.2608
- AUC, modulator BJ.Co2+ (BJeLR): 0.1676
- AUC, modulator BJ.DPQ (BJeLR): 0.007351
- AUC, modulator BJ.Gd3+ (BJeLR): 0.01565
- AUC, modulator BJ.LNAME (BJeLR): 0.004345
- AUC, modulator BJ.Lmin/NAD+ (BJeLR): −0.02656
- AUC, modulator BJ.Lmin (BJeLR): −0.005829
- AUC, modulator BJ.NAD+ (BJeLR): 0.004895
- AUC, modulator BJ.NMMA (BJeLR): −0.01937
- AUC, modulator BJ.Nec-1 (BJeLR): −0.0283
- AUC, modulator BJ.Pepstatin (BJeLR): 0.0213
- AUC, modulator BJ.TLCK (BJeLR): −0.008689
